# Measured values from patent US10344287B2, “Recombinant microorganism producing quinolinic acid and method for producing quinolinic acid using same” (priority 2014, dated 2019).
# Experiments:
# Type in all cases: cell-based, E. coli
# [1] = tested on: MG1655-ΔnadC with pPro-nadB_pCJ1-nadA; assay: Sensitivity to quinolinic acid of strain producing quinolinic acid (growth in LB+1% glucose broth); conditions: 33° C., 16 to 24 hours
# Method: (§1) First, to attenuate growth and development in the production strains, it was confirmed whether the addition of 13 g/L of quinolinic acid, in which KOH was titrated to a 7.0 pH, had influence or not. That is, a single colony of the strain producing quinolinic acid was inoculated in 25 mL of a LB+1% glucose broth (10 g/L of yeast extract, 5 g/L of NaCl, 10 g/L of tryptone, […] of kanamycin, and 10 g/L of glucose) by 1 platinum loop, and then, incubated with 250 rpm at 33° C. for 16 to 24 hours. Then, the OD600, the glucose consumption, and the residual quinolinic acid of the strain were measured.
# [2] = tested on: W3110-ΔnadC with pPro-nadB_pCJ1-nadA; assay: as above
# Method: as §1
# [3] = tested on: W3110-ΔnadC with pPro-nadB_pCJ1-nadA and pCL1920; assay: Sensitivity to quinolinic acid, control strain; conditions: 13 g/L quinolinic acid in medium
# Method: as §1
# (§2) To figure out whether the KefA membrane protein influenced the introduction of quinolinic acid, under the same method as Example 2-4(1), the kefA gene-deficient strain and the kefA gene-enhanced strain were subjected to evaluation of sensitivity to quinolinic acid.
# [4] = tested on: W3110-ΔnadC with pPro-nadB_pCJ1-nadA and pCL_PrhtB-kefA; assay: Sensitivity to quinolinic acid, kefA-enhanced strain
# Method: as §1
# The kefA gene obtained through PCR procedures was recovered through agarose gel elution, and then, was treated with restriction enzymes EcoRV and HindIII. Afterwards, the kefA gene was subjected to ligation into a pCL1920_pRhtB vector treated with restriction enzymes EcoRV and HindIII, leading to the expression of the kefA gene linked to a pRhtB promoter. The vector prepared therefrom was named a pCL_pRhtB-kefA vector.
# as §2
# [5] = tested on: W3110-ΔnadCΔkefA with pPro-nadB_pCJ1-nadA and pCL1920; assay: Sensitivity to quinolinic acid, kefA-deficient strain
# Method: as §1, §2
# [6] = 13 g/L quinolinic acid in medium
smiles,measurement,setting,value
"O=C(O)c1cccnc1C(=O)O [quinolinic acid, 2,3-pyridine-dicarboxylic acid]",OD600,[1]; 13 g/L of quinolinic acid in medium (pH 7.0 with KOH),4.5
same,Glucose consumption,[1]; 13 g/L of quinolinic acid in medium,6.0 g/L
same,OD600,"[2]; 13 g/L of quinolinic acid in medium (pH 7.0 with KOH), 33° C., 16 to 24 hours",4.9
same,Glucose consumption,"[2]; 13 g/L of quinolinic acid in medium, 33° C., 16 to 24 hours",6.0 g/L
same,"growth and development and glucose-consumption speed, decreased to","[2]; quinolinic acid additionally added to the medium (13 g/L) versus 0 g/L, strains of Table 5",40%
same,Glucose consumption,[3],6.2 g/L
same,OD600,[3],5.0
same,Glucose consumption,[4]; [6],3.2 g/L
same,OD600,[4]; [6],2.1
same,growth and development and glucose consumption speed compared to control strain,"[4]; quinolinic acid additionally added to the medium, kefA-enhanced strain versus control strain",50%
same,Glucose consumption,[5]; [6],8.0 g/L
same,OD600,[5]; [6],8.2
same,growth and development and glucose consumption speed compared to control strain,"[5]; quinolinic acid additionally added to the medium, kefA-deficient strain versus control strain",up to 110%
